# From US9695155B2, “Herbicidal substituted pyrimidinyloxy benzene compounds” (E. I. DU PONT DE NEMOURS AND COMPANY, priority 2013, dated 2017)
# What was measured:
# [1] = system: large (Lg) crabgrass; test: Test A postemergence; assay type: in vivo, Digitaria sanguinalis
# How it was run: (§1)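 Greenhouse pot test, loam/sand soil. Formulation: non-phytotoxic solvent mix plus surfactant. Pre: directed spray onto soil after sowing. Post: plants at 1–2 leaf, 2–10 cm. Rated visually vs untreated controls at ~10 d, 0 (no effect) to 100 (complete control).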
# [2] = system: giant foxtail; test: Test A postemergence; assay type: in vivo, Setaria faberii
# How it was run: as §1
# [3] = system: morningglory; test: Test A postemergence; assay type: in vivo, Ipomoea spp.
# How it was run: as §1
# [4] = system: corn; test: Test A postemergence; assay type: in vivo, Zea mays
# How it was run: as §1
# [5] = system: Italian ryegrass; test: Test C postemergence; assay type: in vivo, Lolium multiflorum
# Text: (§2) Seeds of plant species selected from blackgrass (Alopecurus myosuroides), Italian ryegrass (Lolium multiflorum), wheat, winter (winter wheat, Triticum aestivum), galium (catchweed bedstraw, Galium aparine), corn (Zea mays), large (Lg) crabgrass (Digitaria sanguinalis), giant foxtail (Setaria faberii), johnsongrass (Sorghum halepense), lambsquarters (Chenopodium album), morningglory (Ipomoea coccinea), yellow nutsedge (Cyperus esculentus), pigweed (Amaranthus retroflexus), ragweed (common ragweed, Ambrosia elatior), soybean (Glycine max), barnyardgrass (Echinochloa crus-galli), oilseed rape (Brassica napus), waterhemp (common waterhemp, Amaranthus rudis), kochia (Kochia scoparia), wild oat (Avena fatua), surinam grass (Brachiaria decumbens), foxtail, green (green foxtail, Setaria viridis), goosegrass (Eleusine indica), bromegrass, downy (downy bromegrass, Bromus tectorum), nightshade (eastern black nightshade, Solanum ptycanthum), cocklebur (common cocklebur, Xanthium strumarium), cupgrass, woolly (woolly cupgrass, Eriochloa villosa), bermudagrass (Cynodon dactylon), sunflower, (common oilseed sunflower, Helianthus annuus), Russian thistle (Salsola kali), and velvetleaf (Abutilon theophrasti) were planted into a blend of loam soil and sand and treated preemergence with test chemicals formulated in a non-phytotoxic solvent mixture which included a surfactant.
# (§3) At the same time, plants selected from these crop and weed species and also barley, winter (winter barley, Hordeum vulgare), windgrass (Apera spica-venti), chickweed (common chickweed, Stellaria media), deadnettle (henbit deadnettle, Lamium amplexicaule), and canarygrass (littleseed canarygrass, Phalaris minor) were planted in pots containing Redi-Earth® planting medium (Scotts Company, 14111 Scottslawn Road, Marysville, Ohio 43041) comprising spaghnum peat moss, vermiculite, wetting agent and starter nutrients and treated with postemergence applications of test chemicals formulated in the same manner. Plants ranged in height from 2 to 18 cm (1- to 4-leaf stage) for postemergence treatments. Treated plants and controls were maintained in a greenhouse for 13 to 15 days, after which time all species were compared to controls and visually evaluated. Plant response ratings, summarized in Table C, are based on a scale of 0 to 100 where 0 is no effect and 100 is complete control. A dash (-) response means no test result.
# [6] = system: pigweed; test: Test C postemergence; assay type: in vivo, Amaranthus retroflexus
# Text: as §2, §3
# [7] = system: kochia; test: Test C postemergence; assay type: in vivo, Kochia scoparia
# Text: as §2, §3
# [8] = system: velvetleaf; test: Test C postemergence; assay type: in vivo, Abutilon theophrasti
# Text: as §2, §3
# [9] = system: chickweed; test: Test C postemergence; assay type: in vivo, Stellaria media
# Text: as §2, §3
# [10] = 125 g ai/ha, 0 to 100 scale where 0 is no effect and 100 is complete control
# [11] = 500 g ai/ha, 0 to 100 scale where 0 is no effect and 100 is complete control
# [12] = 16 g ai/ha, postemergence, 0 is no effect, 100 is complete control
# [13] = 31 g ai/ha, postemergence, visual rating, scale 0 to 100 (0 no effect, 100 complete control), 13 to 15 days
# [14] = 125 g ai/ha, postemergence, visual rating, scale 0 to 100 (0 no effect, 100 complete control)
# [15] = Postemergence, 62 g ai/ha, scale 0 to 100 (0 no effect, 100 complete control), 13 to 15 days
compound,measurement,setting,value
Fc1cnc(Oc2ccccc2-n2cc(C(F)F)cn2)nc1 [Compound 228],"Crabgrass, Large plant response rating",[1]; [10],40
same,"Plant response rating, Crabgrass, Large",[1]; [11],90
same,"Foxtail, Giant plant response rating",[2]; [10],50
same,"Plant response rating, Foxtail, Giant",[2]; [11],90
same,Morningglory plant response rating,[3]; [10],80
same,"Plant response rating, Morningglory",[3]; [11],100
same,Corn plant response rating,[4]; [10],50
same,"Plant response rating, Corn",[4]; [11],10
same,"Plant response rating (0 to 100), Ryegrass, Italian",[5]; [12],0
same,"Ryegrass, Italian plant response rating",[5]; [13],0
same,"Plant response rating, Ryegrass, Italian",[5]; [14],10
same,"Plant response rating, Ryegrass, Italian",[5]; [15],0
same,"Plant response rating (0 to 100), Pigweed",[6]; [12],25
same,Pigweed plant response rating,[6]; [13],50
same,"Plant response rating, Pigweed",[6]; [14],55
same,"Plant response rating, Pigweed",[6]; [15],60
same,"Plant response rating (0 to 100), Kochia",[7]; [12],30
same,Kochia plant response rating,[7]; [13],60
same,"Plant response rating, Kochia",[7]; [14],85
same,"Plant response rating, Kochia",[7]; [15],80
same,"Plant response rating (0 to 100), Velvetleaf",[8]; [12],15
same,Velvetleaf plant response rating,[8]; [13],55
same,"Plant response rating, Velvetleaf",[8]; [14],70
same,"Plant response rating, Velvetleaf",[8]; [15],60
same,"Plant response rating (0 to 100), Chickweed",[9]; [12],10
same,Chickweed plant response rating,[9]; [13],30
same,"Plant response rating, Chickweed",[9]; [14],50
same,"Plant response rating, Chickweed",[9]; [15],50
"Clc1cnn(-c2ccccc2Oc2ncc(Br)cn2)c1 [Compound 5, 5-bromo-2-[2-(4-chloro-1H-pyrazol-1-yl)phenoxy]pyrimidine]",pest or weed control at 125 g/ha,"[1]; Digitaria sanguinalis, post-emergence, 240 h, 125 g ai/ha, 0 to 100 scale where 0 is no effect and 100 is complete control, read-out: Plant response rating, Crabgrass, Large",30%
same,pest or weed control at 500 g/ha,"[1]; Digitaria sanguinalis, post-emergence, 240 h, 500 g ai/ha, 0 to 100 scale, 0 no effect, 100 complete control, read-out: Plant response rating Crabgrass, Large",80%
same,pest or weed control at 125 g/ha,"[2]; Setaria faberi, post-emergence, 240 h, 125 g ai/ha, 0 to 100 scale where 0 is no effect and 100 is complete control, read-out: Plant response rating, Foxtail, Giant",40%
same,pest or weed control at 500 g/ha,"[2]; Setaria faberi, post-emergence, 240 h, 500 g ai/ha, 0 to 100 scale, 0 no effect, 100 complete control, read-out: Plant response rating Foxtail, Giant",100%
same,pest or weed control at 125 g/ha,"[3]; Ipomoea, post-emergence, 240 h, 125 g ai/ha, 0 to 100 scale where 0 is no effect and 100 is complete control, read-out: Plant response rating, Morningglory",80%
same,pest or weed control at 500 g/ha,"[3]; Ipomoea, post-emergence, 240 h, 500 g ai/ha, 0 to 100 scale, 0 no effect, 100 complete control, read-out: Plant response rating Morningglory",90%
same,"Corn plant response rating (crop injury, 0 = no effect, 100 = complete kill) at 125 g/ha","[4]; Zea mays, post-emergence, 240 h, 125 g ai/ha, 0 to 100 scale where 0 is no effect and 100 is complete control",0%
same,plant injury at 500 g/ha,"[4]; Zea mays, post-emergence, 240 h, 500 g ai/ha, 0 to 100 scale, 0 no effect, 100 complete control, read-out: Plant response rating Corn",30%
same,pest or weed control at 125 g/ha,"[5]; Lolium multiflorum, post-emergence, 125 g ai/ha, postemergence, read-out: Plant response rating (0 to 100), Ryegrass, Italian",10%
same,pest or weed control at 250 g/ha,"[5]; Lolium multiflorum, post-emergence, 250 g ai/ha, postemergence, read-out: Plant response rating (0 to 100), Ryegrass, Italian",25%
same,pest or weed control at 31 g/ha,"[5]; Lolium multiflorum, post-emergence, Postemergence, 31 g ai/ha, scale 0 to 100 (0 no effect, 100 complete control), 13 to 15 days, read-out: Plant response rating, Ryegrass, Italian",0%
same,pest or weed control at 62 g/ha,"[5]; Lolium multiflorum, post-emergence, Postemergence, 62 g ai/ha, scale 0 to 100 (0 no effect, 100 complete control), read-out: Plant response rating, Ryegrass, Italian",5%
same,pest or weed control at 125 g/ha,"[6]; Amaranthus retroflexus, post-emergence, 125 g ai/ha, postemergence, read-out: Plant response rating (0 to 100), Pigweed",100%
same,pest or weed control at 250 g/ha,"[6]; Amaranthus retroflexus, post-emergence, 250 g ai/ha, postemergence, read-out: Plant response rating (0 to 100), Pigweed",100%
same,pest or weed control at 31 g/ha,"[6]; Amaranthus retroflexus, post-emergence, Postemergence, 31 g ai/ha, scale 0 to 100 (0 no effect, 100 complete control), 13 to 15 days, read-out: Plant response rating, Pigweed",98%
same,pest or weed control at 62 g/ha,"[6]; Amaranthus retroflexus, post-emergence, Postemergence, 62 g ai/ha, scale 0 to 100 (0 no effect, 100 complete control), read-out: Plant response rating, Pigweed",98%
same,pest or weed control at 125 g/ha,"[7]; Bassia scoparia, post-emergence, 125 g ai/ha, postemergence, read-out: Plant response rating (0 to 100), Kochia",70%
same,pest or weed control at 250 g/ha,"[7]; Bassia scoparia, post-emergence, 250 g ai/ha, postemergence, read-out: Plant response rating (0 to 100), Kochia",100%
same,pest or weed control at 31 g/ha,"[7]; Bassia scoparia, post-emergence, Postemergence, 31 g ai/ha, scale 0 to 100 (0 no effect, 100 complete control), 13 to 15 days, read-out: Plant response rating, Kochia",20%
same,pest or weed control at 62 g/ha,"[7]; Bassia scoparia, post-emergence, Postemergence, 62 g ai/ha, scale 0 to 100 (0 no effect, 100 complete control), read-out: Plant response rating, Kochia",55%
same,pest or weed control at 125 g/ha,"[8]; Abutilon theophrasti, post-emergence, 125 g ai/ha, postemergence, read-out: Plant response rating (0 to 100), Velvetleaf",80%
same,pest or weed control at 250 g/ha,"[8]; Abutilon theophrasti, post-emergence, 250 g ai/ha, postemergence, read-out: Plant response rating (0 to 100), Velvetleaf",98%
same,pest or weed control at 31 g/ha,"[8]; Abutilon theophrasti, post-emergence, Postemergence, 31 g ai/ha, scale 0 to 100 (0 no effect, 100 complete control), 13 to 15 days, read-out: Plant response rating, Velvetleaf",45%
same,pest or weed control at 62 g/ha,"[8]; Abutilon theophrasti, post-emergence, Postemergence, 62 g ai/ha, scale 0 to 100 (0 no effect, 100 complete control), read-out: Plant response rating, Velvetleaf",55%
same,pest or weed control at 250 g/ha,"[9]; Stellaria media, post-emergence, 250 g ai/ha, postemergence, read-out: Plant response rating (0 to 100), Chickweed",45%
same,pest or weed control at 31 g/ha,"[9]; Stellaria media, post-emergence, Postemergence, 31 g ai/ha, scale 0 to 100 (0 no effect, 100 complete control), 13 to 15 days, read-out: Plant response rating, Chickweed",5%
same,pest or weed control at 62 g/ha,"[9]; Stellaria media, post-emergence, Postemergence, 62 g ai/ha, scale 0 to 100 (0 no effect, 100 complete control), read-out: Plant response rating, Chickweed",15%
